Columns and labels:
[1] = system: PANC-1 xenograft mice; conditions: data not shown
[2] = system: PANC-1 xenograft mice; assay: [^18F]FAPI-74 PET imaging in PANC-1 xenograft mice; format: in vivo
Description: PET images were acquired with a small animal PET scanner (Siemens Inveon PET/CT) 3 weeks after the implantation in PANC-1 xenograft mice (9 weeks old, body weight = 25.3 ± 1.2 g, n = 9). Under 2% isoflurane anesthesia, [^18F]FAPI-74 (12.4 ± 1.7 MBq) was injected in the tail vein. Dynamic PET scans (scan duration = 70 min, n = 2) were started simultaneously with the bolus injection. Static PET scans (scan duration = 10 min, n = 7) were performed 1 h after injection, followed by a CT scan. PET data were reconstructed into 2-min frames in the dynamic PET scan (2 min × 35 frames) and one frame in the static PET scan by three-dimensional ordered-subset expectation–maximization (16 subsets, 2 iterations), with attenuation and scatter correction. Regions of interest were drawn on the muscle, heart, lungs, liver, gallbladder, kidneys, intestine, and tumour. The mean standardized uptake values (SUVmean) and maximum standardized uptake values (SUVmax) were measured using PMOD (Version 4.0).

[3] = system: PANC-1 xenograft mice; assay: Biodistribution of [^177Lu]FAPI-46 and [^225Ac]FAPI-46 in PANC-1 xenograft mice (gamma counter); format: in vivo; conditions: for organs with relatively high accumulation / residence: 24 h post-injection; for clearance from organs: between 3 and 24 h post-administration
Description: [^177Lu]FAPI-46 (3.3 ± 0.1 MBq) and [^225Ac]FAPI-46 (12.5 ± 0.7 kBq) were injected into PANC-1 xenograft mice (9 weeks old, body weight = 23.9 ± 0.9 g, n = 12). After euthanasia by deep inhalation anesthesia with isoflurane, the brain, thyroid gland, salivary glands, lungs, heart, liver, spleen, pancreas, stomach, small intestine, large intestine, kidneys, bone (femur), bladder, testis, tumour, blood, and urine were removed and weighed at 3 h and 24 h. Radioactivity was also measured using a gamma counter (2480 Wizard^2 Gamma Counter, Perkin Elmer, USA).

[4] = system: PANC-1 xenograft; assay: Treatment effect on tumour size in PANC-1 xenograft mice; format: in vivo; conditions: for relative ratio of the tumour size compared to the control group: day 40
Description: Male nude mice (BALB/cSlc-nu/nu) were purchased from Japan SLC Inc. (Hamamatsu, Japan). Animals were housed under a 12-h light/12-h dark cycle and allowed free access to food and water. The mice were injected with PANC-1 cells (1 × 10^7 cells) in a mixture of phosphate-buffered saline and Matrigel (0.1 mL, 1:1; BD Biosciences, Franklin Lakes, NJ, USA). Tumour xenograft models were evaluated 3 weeks after transplantation of PANC-1 cells (tumour volume = 716 ± 304 mm^3). Euthanasia was performed in the following conditions: (1) when the animals had unbearable suffering, (2) when a significant decrease in activity or a marked decrease in food and water intake was observed, and (3) at the end of the observation period (up to 44 days for [^177Lu]FAPI-46 and 32 days for [^225Ac]FAPI-46). Euthanasia was performed by deep anesthesia using isoflurane inhalation.
(§1) [^177Lu]FAPI-46 and [^225Ac]FAPI-46 were injected into PANC-1 xenograft mice via the tail vein (9 weeks old, body weight = 22.7 ± 2.1 g). Mice injected with [^177Lu]FAPI-46 were divided into four groups according to the injected dose: 3 MBq (3.2 ± 0.1 MBq, n = 6), 10 MBq (10.2 ± 0.5 MBq, n = 6), 30 MBq (30.5 ± 2.7 MBq, n = 6) and control (n = 4) groups. Mice injected with [^225Ac]FAPI-46 were divided into four groups: 3 kBq (2.9 ± 0.0 kBq, n = 3), 10 kBq (8.5 ± 1.1 kBq, n = 2), 30 kBq (30.5 ± 0.7 kBq, n = 6) and control (n = 7) groups. The tumour size and body weight were measured with a caliper using the elliptical sphere model calculation, three times per week during the observation period.

[5] = Body weight of treated PANC-1 xenograft mice; format: in vivo
Description: as §1

[6] = system: PANC-1 xenograft mice; assay: Histological analysis (H&E) of kidneys and tumours after treatment; format: in vivo
Description: All mice were killed after [^18F]FAPI-74 PET imaging, and tumour xenografts were removed. Immunohistochemical staining was performed using anti-FAP alpha antibody (ab53066; Abcam, Cambridge, UK), and the Dako EnVision + System—HRP Labelled Polymer Anti-Rabbit (K4003) (DAKO Corp., Glostrup, Denmark). To evaluate toxicity, the kidneys were removed after the mice treated with [^177Lu]FAPI-46 and [^225Ac]FAPI-46 were sacrificed. The tissues were fixed in 10% neutral buffered formalin solution for paraffin blocks and stained with hematoxylin and eosin (H&E). Tumour blocks in all mice were also stained with H&E.

[7] = static PET scan 1 h after i.v. injection

`[177Lu+3].[Cl-].[Cl-].[Cl-]` [[^177Lu]LuCl3, Lutetium-177 chloride] gave a lethal dose [1] of 30 MBq.

For `N#C[C@@H]1CCCN1C(=O)CNC(=O)c1ccnc2ccc(OCCCN3CCN(C(=O)CN4CCN(CC(=O)[O-])CCN(CC(=O)[O-])CC4)CC3)cc12.[18F][Al+2]` [[^18F]FAPI-74], the “SUVmean in the gallbladder” value [2, 7] was 0.66 ± 0.15, the “SUVmean in the heart” value [2, 7] was 0.08 ± 0.01 and the “SUVmean in the intestine” value [2, 7] was 0.61 ± 0.48. The “SUVmean in the kidneys” value [2, 7] was 0.39 ± 0.07, the “SUVmean in the liver” value [2, 7] was 0.14 ± 0.02 and the “SUVmean in the muscle” value [2, 7] was 0.05 ± 0.01. The “SUVmean in the tumour” value [2, 7] was 0.24 ± 0.04 and the “clearance and tumour washout on dynamic PET” value ([2]; time-activity curve) was “cleared rapidly by the kidneys but washout from the tumour occurred slowly”.

In the case of `CN(CCCN1CCN(C(=O)CN2CCN(CC(=O)[O-])CCN(CC(=O)[O-])CCN(CC(=O)[O-])CC2)CC1)c1ccc2nccc(C(=O)NCC(=O)N3CC(F)(F)C[C@H]3C#N)c2c1.[177Lu+3]` [[^177Lu]FAPI-46], the “%ID/g of the urine” value ([3]; 3 h post-administration, PANC-1 xenograft mice) is reported as 21.2 ± 15.3 %ID/g, the “organs with relatively high accumulation / residence” value [3] is reported as “relatively high tracer accumulation was seen in the tumour, large intestine, and bone” and the “uptake in the liver” value ([3]; PANC-1 xenograft mice) is reported as “low”. For the same compound, the clearance from organs [3] was “Most organs showed fast clearance”, the “tumour growth after administration” value ([4]; 3, 10, 30 MBq, multiple comparisons across the doses) was “inhibitory trend after administration, although the changes were not statistically significant” and the “therapeutic effects (time course)” value ([4]; 3 MBq and 10 MBq groups) was “slower and were seen until day 12”. The “relative ratio of the tumour size compared to the control group” value (“relative ratio of the tumour size” for short) ([4]; 3 MBq group) was 0.62, the “relative ratio of the tumour size” value ([4]; 10 MBq group) was 0.56 and the “time after administration at which tumour-suppressive effects were observed” value ([4]; 30 MBq group) was 9 days. The “relative ratio of the tumour size” value ([4]; 30 MBq group) was 0.27, the “body weight compared to the controls” value ([5]; 10 MBq and 30 MBq groups) was “slight decrease without statistical significance” and the “histological changes in the kidneys (H&E)” value ([6]; day 44 after administration) was “No histological changes”. The “histological changes in the tumour (H&E) compared to controls” value ([6]; day 44 after administration) was “No significant difference”.

With `CN(CCCN1CCN(C(=O)CN2CCN(CC(=O)[O-])CCN(CC(=O)[O-])CCN(CC(=O)[O-])CC2)CC1)c1ccc2nccc(C(=O)NCC(=O)N3CC(F)(F)C[C@H]3C#N)c2c1.[225Ac+3]` [[^225Ac]FAPI-46] the “organs with relatively high accumulation / residence” value [3] was “relatively higher residence time in the tumour, spleen, liver, stomach, small intestine, and large intestine”, the “uptake in the liver” value ([3]; PANC-1 xenograft mice) was “high accumulation in the liver” and the clearance from organs [3] was “Most organs showed fast clearance”. The tumour-suppressive effects ([4]; 3 kBq group) was “very mild”, the “tumour growth after treatment” value ([4]; 10 kBq and 30 kBq groups) was “suppressed immediately after treatment” and the “tumour size vs control group” value ([4]; 30 kBq group) was “significantly smaller than those in the control group on days 5–9 and day 25”. The “day at which tumour regrowth began” value ([4]; high dose) was 12 days, the body weight recovery ([5]; 3 kBq and 10 kBq groups) was “recovery after day 7” and the body weight ([5]; all groups (3, 10, 30 kBq)) was “decreasing trend in the first week”. The “histological changes in the kidneys (H&E)” value ([6]; day 32 after administration) was “No histological changes”.
